The source made the active and inactive calls.
Experiments:
[1] = viability of uninfected HEp-2 cells – cell-based, HTS, cytotoxicity control for RSV inhibitor project, dose response (AID 2410); type: functional; conditions: human respiratory syncytial virus
cells [2] = assay: cells
Kallikrein-7 = Kallikrein-7 (Homo sapiens, UniProt P49862); assay: Fluorescence Intensity-based biochemical primary high throughput dose response assay to identify activators of kallikrein-7 (K7) zymogen.
Estrogen receptor beta = Estrogen receptor beta (Homo sapiens, UniProt Q92731);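 also: recombinant ER-beta bound to coactivator SRC1 peptide in presence of estradiol agonist; inhibitors block coactivator peptide binding and lower the FRET signal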
[3] = M. tuberculosis H37Rv growth inhibitors, H37Rv strain (AID 1626); type: functional
Vero = assay: mammalian cell viability reduction – secondary assay, cytotoxicity control for West Nile virus antiviral project, dose response (AID 1650); type: functional; conditions: Chlorocebus sabaeus
[4] = target: T1, Carboxy-terminal domain RNA polymerase II polypeptide A small phosphatase 1 (Homo sapiens, UniProt Q9GZU7); assay: CTDSP1 inhibitors, concentration-response, biochemical, absorbance readout, ultra-high-throughput screen actives (AID 540297); type: functional
T1 sequence (Q9GZU7 whole entry): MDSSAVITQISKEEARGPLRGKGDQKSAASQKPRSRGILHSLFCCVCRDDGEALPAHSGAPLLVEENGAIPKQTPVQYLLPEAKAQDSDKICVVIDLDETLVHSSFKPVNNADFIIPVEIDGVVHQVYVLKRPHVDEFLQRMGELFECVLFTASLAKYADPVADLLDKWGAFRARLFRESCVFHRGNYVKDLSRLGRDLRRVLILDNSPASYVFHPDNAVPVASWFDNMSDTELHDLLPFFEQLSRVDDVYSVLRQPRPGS

Caspase-6 = target: T2, Caspase-6 (Homo sapiens, UniProt P55212); assay: inhibition of CASP6 peptide cleavage – biochemical, VEID-R110 fluorescence, cherry-pick, dose response (AID 720632)
T2 sequence (P55212 whole entry): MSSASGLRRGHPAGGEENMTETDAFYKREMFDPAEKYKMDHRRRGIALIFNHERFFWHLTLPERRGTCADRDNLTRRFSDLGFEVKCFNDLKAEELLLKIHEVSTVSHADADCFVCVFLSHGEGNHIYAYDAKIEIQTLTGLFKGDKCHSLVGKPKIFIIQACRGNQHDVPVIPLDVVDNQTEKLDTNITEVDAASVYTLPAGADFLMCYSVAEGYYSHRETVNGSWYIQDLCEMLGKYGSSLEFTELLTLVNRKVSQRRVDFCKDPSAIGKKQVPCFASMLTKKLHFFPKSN

[5] = target: Sphingosine 1-phosphate receptor 2 (Homo sapiens, UniProt O95136); assay: Dose Response Cell Based Assay for Agonists of the S1P2 Receptor of Purchased Analogues. [Related pubchem assays: 729, 843, 854, 736 ]; type: functional
[6] = target: T3, Mannose-6-phosphate isomerase (Homo sapiens, UniProt P34949); assay: MPI inhibition at elevated mannose 6-phosphate – biochemical, fluorescence intensity, high mannose 6-phosphate, primary screen (AID 1220)
T3 sequence (P34949 whole entry): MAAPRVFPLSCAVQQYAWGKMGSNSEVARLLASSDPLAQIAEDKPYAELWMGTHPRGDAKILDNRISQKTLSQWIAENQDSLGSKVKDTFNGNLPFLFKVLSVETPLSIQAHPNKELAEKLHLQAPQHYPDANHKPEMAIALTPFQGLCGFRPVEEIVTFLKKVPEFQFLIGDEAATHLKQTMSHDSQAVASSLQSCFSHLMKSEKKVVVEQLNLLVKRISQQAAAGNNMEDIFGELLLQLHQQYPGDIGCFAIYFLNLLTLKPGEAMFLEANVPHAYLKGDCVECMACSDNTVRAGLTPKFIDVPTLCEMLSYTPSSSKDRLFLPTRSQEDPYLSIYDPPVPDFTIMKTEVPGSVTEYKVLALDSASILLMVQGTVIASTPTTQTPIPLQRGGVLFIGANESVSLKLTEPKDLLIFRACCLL

[7] = target: T3, Mannose-6-phosphate isomerase; assay: MPI enzyme activity inhibition – biochemical, fluorescence intensity, coupled assay, primary screen (AID 1209)
Protein skinhead-1 = target: T4, Protein skinhead-1 (Caenorhabditis elegans, UniProt P34707); type: functional
T4 sequence (P34707 whole entry): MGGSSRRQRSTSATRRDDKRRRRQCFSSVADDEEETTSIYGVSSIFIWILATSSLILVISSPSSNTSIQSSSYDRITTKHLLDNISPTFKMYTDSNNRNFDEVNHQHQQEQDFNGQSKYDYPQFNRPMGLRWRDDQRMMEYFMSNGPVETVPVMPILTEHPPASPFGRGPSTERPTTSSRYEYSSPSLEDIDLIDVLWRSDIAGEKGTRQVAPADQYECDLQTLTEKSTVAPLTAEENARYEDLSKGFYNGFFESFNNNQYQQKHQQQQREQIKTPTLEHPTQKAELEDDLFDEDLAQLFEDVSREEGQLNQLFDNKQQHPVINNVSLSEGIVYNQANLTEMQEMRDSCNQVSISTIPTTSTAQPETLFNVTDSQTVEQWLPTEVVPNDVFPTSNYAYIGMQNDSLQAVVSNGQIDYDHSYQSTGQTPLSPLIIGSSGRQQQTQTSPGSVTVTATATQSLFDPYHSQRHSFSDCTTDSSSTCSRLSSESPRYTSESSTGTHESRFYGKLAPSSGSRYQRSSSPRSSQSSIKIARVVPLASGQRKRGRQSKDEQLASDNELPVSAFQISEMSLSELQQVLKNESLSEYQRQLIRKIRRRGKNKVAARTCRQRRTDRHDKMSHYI

[8] = A Cell Based Secondary Assay To Explore Cytotoxicity of Compounds that Sensitize Mycobacterium Tuberculosis to Beta-Lactam Antibiotics.; type: functional
[9] = HEK-293T viability loss after treatment – luminescence, T-cell screen hits, cytotoxicity control for TCR NF-kB inhibitor project, dose response (AID 489026); type: functional, cell-based;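 also: cells exposed to compound about 14 hours before the viability readout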
Galanin receptor type 3 = target: T5, Galanin receptor type 3 (Homo sapiens, UniProt O60755); assay: Fluorescence-based cell-based primary high throughput dose response assay to identify antagonists of the Galanin Receptor 3 (GalR3).; type: functional
T5 sequence (O60755 whole entry): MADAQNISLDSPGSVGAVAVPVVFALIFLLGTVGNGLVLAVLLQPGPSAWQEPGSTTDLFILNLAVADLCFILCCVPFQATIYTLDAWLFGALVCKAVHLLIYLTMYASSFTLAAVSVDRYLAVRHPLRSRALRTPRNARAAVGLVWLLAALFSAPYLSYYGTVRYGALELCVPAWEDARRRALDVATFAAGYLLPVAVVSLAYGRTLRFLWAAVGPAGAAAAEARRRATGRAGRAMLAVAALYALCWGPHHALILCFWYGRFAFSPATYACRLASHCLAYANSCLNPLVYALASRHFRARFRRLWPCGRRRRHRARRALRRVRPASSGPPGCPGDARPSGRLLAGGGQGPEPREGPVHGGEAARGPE

[10] = target: T6, COUP transcription factor 2 (Homo sapiens, UniProt P24468); assay: Luminescence-based cell-based high throughput dose response assay to identify inhibitors of COUP-TFII (NR2F2).; type: functional;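 also: HEK293 cells transiently cotransfected with COUP-TFII expression vector and reporter; luciferase reporter luminescence driven by COUP-TFII from the pX2-168 reporter plasmid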
T6 sequence (P24468 whole entry): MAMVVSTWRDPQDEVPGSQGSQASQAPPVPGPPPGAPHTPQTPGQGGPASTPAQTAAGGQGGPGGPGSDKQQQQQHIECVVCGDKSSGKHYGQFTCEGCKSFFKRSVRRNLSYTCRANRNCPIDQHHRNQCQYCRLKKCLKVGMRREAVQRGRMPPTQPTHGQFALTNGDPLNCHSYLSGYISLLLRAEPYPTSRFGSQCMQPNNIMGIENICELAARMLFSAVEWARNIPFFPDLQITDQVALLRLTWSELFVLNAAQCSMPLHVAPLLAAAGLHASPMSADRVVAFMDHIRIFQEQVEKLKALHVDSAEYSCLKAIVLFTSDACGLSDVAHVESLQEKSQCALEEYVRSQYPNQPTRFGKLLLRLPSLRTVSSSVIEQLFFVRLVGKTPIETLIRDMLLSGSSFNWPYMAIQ

cells [11] = type: functional, cell-based; conditions: HEK-CNG
[12] = loss of viability in HepG2 cells – cell-based, CellTiter-Glo, cherry-picked, cytotoxicity control for Shn3 inhibitor project, dose response (AID 624134); type: functional
[13] = non-specific 3'UTR reporter inhibition in Clone20-Shn3RL – cell-based, Renilla luciferase, cherry-picked, counter-screen for Shn3 inhibitor project, dose response (AID 624133); type: functional
[14] = reduction of Shn3 3'UTR-driven luciferase in osteoblasts – cell-based, Clone20 osteoblasts, firefly luciferase, cherry-picked, dose response (AID 624132); type: functional;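 also: firefly luciferase luminescence from reporter carrying the Shn3 3'UTR in osteoblasts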
[15] = Luminescence Cell-Based Dose Response HTS to Identify Activators of Luciferase Translation or Activity in H4 […] Cells. [Related pubchem assays: 1829 (Project Summary), 1814 (Primary HTS)]; type: functional
H4 = assay: Luminescence Cell-Based Dose Response HTS to Identify Activators of 5'UTR Stem-Loop Driven Prion Protein mRNA Translation in H4 Neuroglioblastoma Cells. [Related pubchem assays: 1829 (Project Summary), 1814 (Primary HTS)]; type: functional; conditions: Homo sapiens
[16] = Luminescence Cell-Based Dose Confirmation HTS to Identify Activators of 5'UTR Stem-Loop Driven Alpha-Synuclein mRNA Translation in H4 Neuroglioblastoma Cells. [Related pubchem assays: 1829 (Project Summary), 1814 (Primary HTS)]; type: functional

Sequence of Kallikrein-7 (P49862 whole entry): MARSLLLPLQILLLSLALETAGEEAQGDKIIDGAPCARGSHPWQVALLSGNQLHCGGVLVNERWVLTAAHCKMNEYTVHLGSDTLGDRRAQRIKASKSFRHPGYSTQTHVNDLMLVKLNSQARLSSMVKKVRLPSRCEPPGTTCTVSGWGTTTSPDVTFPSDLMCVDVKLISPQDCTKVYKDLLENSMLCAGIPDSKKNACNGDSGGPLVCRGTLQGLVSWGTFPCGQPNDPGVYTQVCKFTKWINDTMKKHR
Sequence of Sphingosine 1-phosphate receptor 2 (O95136 whole entry): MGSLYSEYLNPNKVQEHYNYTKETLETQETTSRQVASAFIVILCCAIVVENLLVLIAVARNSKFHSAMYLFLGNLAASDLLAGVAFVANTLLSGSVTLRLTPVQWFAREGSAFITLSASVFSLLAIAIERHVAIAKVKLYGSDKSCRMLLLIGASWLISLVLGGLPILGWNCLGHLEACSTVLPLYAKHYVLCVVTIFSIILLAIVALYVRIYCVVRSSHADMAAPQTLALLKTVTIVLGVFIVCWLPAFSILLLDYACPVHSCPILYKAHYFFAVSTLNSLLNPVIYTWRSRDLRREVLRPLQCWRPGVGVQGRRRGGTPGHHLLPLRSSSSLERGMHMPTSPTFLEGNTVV
Sequence of Estrogen receptor beta (Q92731 whole entry): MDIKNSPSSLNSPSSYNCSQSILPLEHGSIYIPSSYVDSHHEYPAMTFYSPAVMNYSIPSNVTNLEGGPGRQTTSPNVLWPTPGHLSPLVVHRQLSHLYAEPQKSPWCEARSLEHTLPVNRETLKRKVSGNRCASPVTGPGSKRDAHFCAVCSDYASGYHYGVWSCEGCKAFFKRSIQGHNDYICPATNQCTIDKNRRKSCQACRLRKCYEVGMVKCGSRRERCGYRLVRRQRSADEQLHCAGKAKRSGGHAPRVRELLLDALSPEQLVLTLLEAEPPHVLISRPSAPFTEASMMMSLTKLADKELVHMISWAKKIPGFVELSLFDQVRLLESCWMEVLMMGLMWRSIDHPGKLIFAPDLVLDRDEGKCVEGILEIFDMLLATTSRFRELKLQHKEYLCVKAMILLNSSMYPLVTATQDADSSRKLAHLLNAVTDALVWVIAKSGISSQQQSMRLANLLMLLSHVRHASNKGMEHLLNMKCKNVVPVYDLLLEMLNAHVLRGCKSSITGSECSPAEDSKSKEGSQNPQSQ

Structure (SMILES): CCN(c1ccccc1)S(=O)(=O)c1ccc(Cl)c(NC(=O)CSc2nc[nH]n2)c1
- CC50 [1]: 46.3 µM (active)
- IC50 (cells [2]): 16.9 µM (active)

Structure (SMILES): CC[C@@H]1C(c2ccc(F)cc2)=NN(c2ccccc2)[C@H]1C(=O)N1CCOC1=O
- EC50 (Kallikrein-7): 7.45 µM (active)

Structure (SMILES): O=C(O)c1cc2sccc2s1
- IC50 (Estrogen receptor beta): > 50 µM (not active)

Structure (SMILES): Cc1ccc(OCCC(=O)Nc2ccc(C)c(F)c2)cc1
- IC50 [3]: > 100 µM (active)

Structure (SMILES): C(=N\Nc1ncnc2sc3c(c12)CCC3)/c1ccncc1
- CC50 [1]: 38.7 µM (active)
- CC50 (Vero): > 100 µM (active)

Structure (SMILES): CCc1ccccc1NC(=O)CNC(=O)CCc1nc2sc3c(c2c(=O)[nH]1)CCCC3
- IC50 [4]: 5.82 µM (active)
- AC50 (Caspase-6): 24.8 µM (active)

Structure (SMILES): CCOc1ccc(OCC)c(NC(=O)CN2CCN(c3cc(C)ccc3C)CC2)c1
- IC50 [3]: > 100 µM (active)

Structure (SMILES): Cc1cc(C(=O)COc2ccc(C(N)=O)cc2)c(C)n1Cc1ccccc1
- EC50 [5]: > 30 µM (not active)

Structure (SMILES): CCCCC(=O)OCC(=O)Nc1ccc(SC(F)F)cc1
- IC50 [3]: > 100 µM (active)

Structure (SMILES): COc1cc(C)c2occ(/C(C)=N\O)c2c1
- IC50 (cells [2]): 18.4 µM (active)

Structure (SMILES): O=C(O)CCNc1cc2ccccc2cc1C(=O)O
- IC50 [6]: > 50 µM (not active)
- IC50 [7]: > 50 µM (not active)
- IC50 (Protein skinhead-1): > 100 µM (inactive)

Structure (SMILES): CS(=O)(=O)c1ccc(-c2sc3cc4c(cc3c2C(=O)NN2CCOCC2)OCO4)cc1
- IC50 [4]: 14.6 µM (active)
- EC50 (Kallikrein-7): > 23.2 µM (inactive)

Structure (SMILES): CC(C)Oc1ccc(C(=O)Nc2ccc(Cl)c(S(=O)(=O)Nc3ccc(Cl)cc3)c2)cc1
- CC50 (Vero): 28.1 µM (active)

Structure (SMILES): Cc1ccc(S(=O)(=O)N2CCN(C)CC2)cc1-c1nnc2c3ccccc3c(C)nn12
- IC50 (cells [2]): 23.1 µM (active)

Structure (SMILES): c1ccc(-c2cc(N3CCOCC3)nc3ccccc23)cc1
- CC50 [8]: > 40 µM (active)

Structure (SMILES): COc1cccc(C2(C)NC(=O)N(CC(=O)c3cc(C)n(Cc4ccccc4)c3C)C2=O)c1 (stereo not drawn)
- EC50 [5]: > 30 µM (not active)

Structure (SMILES): COc1ccc(OC)c(CCNC(=O)Cn2nc(C)c3c(C)n(-c4ccc(C)cc4)nc3c2=O)c1
- IC50 [9]: > 80 µM (inactive)
- IC50 (Galanin receptor type 3): 2.76 µM (active)
- IC50 [10]: 2.61 µM (active)
- EC50 (cells [11]): > 29.9 µM (inactive)

Structure (SMILES): Cc1cc(C)c2cc(C=O)c(Cl)nc2c1
- IC50 [6]: 17.1 µM (active)
- IC50 [7]: 14.2 µM (active)

Structure (SMILES): CCC(C)C(NC(=O)CCCNC(=O)CCC(=O)OC1O[C@H]2OC3(C)CC[C@H]4[C@H](C)CCC(C1C)C24OO3)C(=O)O (stereo partly drawn)
- AC50 [12]: > 70 µM (inactive)
- IC50 [10]: > 85.4 µM (inactive)
- AC50 [13]: 0.683 µM (active)
- AC50 [14]: 1.02 µM (active)

Structure (SMILES): Cc1nc(N=C(N)NC(=O)c2ccccc2)nc2ccccc12
- EC50 [15]: 28.4 µM (active)
- EC50 (H4): 63.4 µM (active)
- CC50 [8]: > 40 µM (active)
- EC50 [16]: 8.34 µM (active)

Structure (SMILES): CC(=O)c1ccc(OCC(=O)c2cc(C)n(Cc3ccccc3)c2C)cc1
- EC50 [5]: > 30 µM (not active)

Structure (SMILES): COc1ccc(-c2ccc3c(n2)CCCN3Cc2ccccc2C(F)(F)F)cc1
- EC50 (Kallikrein-7): 17.2 µM (inactive)

Reference: ChEMBL document CHEMBL1201862, “PubChem BioAssay data set” (2004)
